# Results: patent publication US9079895B2, “Morpholino compounds, uses and methods” (University of Dundee, priority 2012, dated 2015)
# How the values were obtained:
# Details in all cases: average of at least two experiments
# dopamine D1 receptor = dopamine D1 receptor (Homo sapiens (Human), UniProt P21728); assay: Secondary radioligand binding assay, D1; parameters: key to Ki D1: “—” indicates that a binding interaction was not detected
# Protocol: (§1) 1. Secondary Radioligand Binding Assays
# (§2) The detailed experimental protocols for the radioligand and functional receptor assays are available on the NIMH PDSP website at http://pdsp.med.unc.edu/UNC-CH %20Protocol %20Book.pdf.
# (§3) Radioligand is diluted to five times the assay concentration (see Table 18) in Standard Binding Buffer. Typically, the assay concentration of radioligand is a value between one half the KD and the KD of a particular radioligand at its target. 50 μl aliquots of radioligand are dispensed into the wells of a 96-well plate containing 100 μl of Standard Binding Buffer. Then, duplicate 50 μl aliquots of the test and reference compound dilutions are added.
# (§4) The 250 μl reactions are incubated at room temperature and shielded from light (to prevent photolysis of light-sensitive ligands) for 1.5 hours, then harvested by rapid filtration onto Whatman GF/B glass fiber filters pre-soaked with 0.3% polyethyleneimine using a 96-well Brandel harverster. Four rapid 500 μl washes are performed with chilled Standard Binding Buffer to reduce non-specific binding. Filters are placed in 6 ml scintillation tubes and allowed to dry overnight. The next day, 4 ml of EcoScint scintillation cocktail (National Diagnostics) are added to each tube. The tubes are capped, labeled, and counted by liquid scintillation counting. […] The filter mats are dried, then scintillant is melted onto the filters and the radioactivity retained on the filters is counted in a Microbeta scintillation counter.
# (§5) Raw data (dpm) representing total radioligand binding (i.e. specific+non-specific binding) are plotted as a function of the logarithm of the molar concentration of the competitor (i.e. test or reference compound).
# (§6) B. Dopamine Receptors: D1, D2, D3, D4, D5 Assay Buffers: Dopamine Binding Buffer (50 mM NaCl, 50 mM HEPES-HCl, 5 mM MgCl2, 0.5 mM EDTA, pH 7.4) Membrane Fraction Source: Transiently or stably transfected cell lines (e.g. HEK293, COS, CHO, NIH3T3)
# (§7) The method is carried out in the manner described for the serotonin receptor assay above. Eleven dilutions (5× assay concentration) of the test and reference (see Table 19) compounds are prepared in Dopamine Binding Buffer by serial dilution, as previously described. Radioligand is diluted to five times the assay concentration (see Table 20) in Dopamine Binding Buffer.
# dopamine D3 receptor = dopamine D3 receptor (Homo sapiens (Human), UniProt P35462); assay: Secondary radioligand binding assay, D3; parameters: key to Ki D3: “—” indicates that a binding interaction was not detected
# dopamine D3 receptor, sequence (P35462 whole entry, species assumed): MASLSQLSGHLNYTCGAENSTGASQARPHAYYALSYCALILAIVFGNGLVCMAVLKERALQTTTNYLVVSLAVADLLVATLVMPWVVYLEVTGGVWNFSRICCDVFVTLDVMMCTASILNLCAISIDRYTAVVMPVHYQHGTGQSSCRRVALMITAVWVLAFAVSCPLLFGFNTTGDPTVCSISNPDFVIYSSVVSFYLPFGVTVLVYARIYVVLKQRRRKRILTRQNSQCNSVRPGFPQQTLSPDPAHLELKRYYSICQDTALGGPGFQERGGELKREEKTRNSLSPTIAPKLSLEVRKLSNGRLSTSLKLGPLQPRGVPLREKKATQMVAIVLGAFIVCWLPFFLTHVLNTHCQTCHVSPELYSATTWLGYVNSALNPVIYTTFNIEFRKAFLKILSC
# Protocol: as §1, §2, §3, §4, §5, §6, §7
# 5HT1d receptor = 5HT1d receptor (Homo sapiens (Human), UniProt P28221); assay: Secondary radioligand binding assay, 5HT1d; parameters: key to Ki 5HT1d: “—” indicates that a binding interaction was not detected;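 also: competition binding against a radioligand on membranes from transfected cell lines, 1.5 h at room temperature, filter-retained radioactivity counted by liquid scintillation, total binding plotted versus log competitor concentration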
# 5HT1d receptor, sequence (P28221 whole entry): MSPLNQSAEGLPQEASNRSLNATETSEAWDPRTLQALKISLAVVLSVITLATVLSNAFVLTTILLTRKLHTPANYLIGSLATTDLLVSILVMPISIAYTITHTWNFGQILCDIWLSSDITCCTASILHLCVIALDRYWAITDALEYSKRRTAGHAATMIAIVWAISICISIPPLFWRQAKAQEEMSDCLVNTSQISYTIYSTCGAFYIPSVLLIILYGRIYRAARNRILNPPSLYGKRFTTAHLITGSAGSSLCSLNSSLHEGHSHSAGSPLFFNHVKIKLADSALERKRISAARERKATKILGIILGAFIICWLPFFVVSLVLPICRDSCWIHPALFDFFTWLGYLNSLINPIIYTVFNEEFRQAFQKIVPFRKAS
# 5HT7 receptor = 5HT7 receptor (Homo sapiens (Human), UniProt P34969); assay: Secondary radioligand binding assay, 5HT7; parameters: key to Ki 5HT7: “—” indicates that a binding interaction was not detected;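 also: competition of test compound with radioligand for binding to membranes from transfected cell lines, 1.5 h incubation at room temperature, filter-bound radioactivity read by liquid scintillation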
# 5HT7 receptor, sequence (P34969 whole entry): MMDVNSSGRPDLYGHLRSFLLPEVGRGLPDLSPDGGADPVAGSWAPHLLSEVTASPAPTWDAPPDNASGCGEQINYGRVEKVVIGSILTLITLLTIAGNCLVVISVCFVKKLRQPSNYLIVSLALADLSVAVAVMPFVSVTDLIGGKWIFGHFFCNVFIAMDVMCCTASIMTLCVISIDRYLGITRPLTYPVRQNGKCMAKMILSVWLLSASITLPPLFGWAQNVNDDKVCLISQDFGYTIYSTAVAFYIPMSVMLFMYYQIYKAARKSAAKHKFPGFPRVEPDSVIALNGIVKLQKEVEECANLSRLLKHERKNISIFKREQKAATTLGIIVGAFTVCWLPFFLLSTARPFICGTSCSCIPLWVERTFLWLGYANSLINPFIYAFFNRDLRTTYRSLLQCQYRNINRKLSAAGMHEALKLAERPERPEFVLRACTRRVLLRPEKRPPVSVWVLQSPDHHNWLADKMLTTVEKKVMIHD
# 5HT3 receptor = 5HT3 receptor (Homo sapiens (Human), UniProt P46098); assay: Secondary radioligand binding assay, 5HT3; parameters: key: “—” indicates that a binding interaction was not detected;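 also: radioligand competition binding on membranes from transfected cell lines, 1.5 h incubation at room temperature, filter-retained radioactivity measured by liquid scintillation counting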
# 5HT3 receptor, sequence (P46098 24-478): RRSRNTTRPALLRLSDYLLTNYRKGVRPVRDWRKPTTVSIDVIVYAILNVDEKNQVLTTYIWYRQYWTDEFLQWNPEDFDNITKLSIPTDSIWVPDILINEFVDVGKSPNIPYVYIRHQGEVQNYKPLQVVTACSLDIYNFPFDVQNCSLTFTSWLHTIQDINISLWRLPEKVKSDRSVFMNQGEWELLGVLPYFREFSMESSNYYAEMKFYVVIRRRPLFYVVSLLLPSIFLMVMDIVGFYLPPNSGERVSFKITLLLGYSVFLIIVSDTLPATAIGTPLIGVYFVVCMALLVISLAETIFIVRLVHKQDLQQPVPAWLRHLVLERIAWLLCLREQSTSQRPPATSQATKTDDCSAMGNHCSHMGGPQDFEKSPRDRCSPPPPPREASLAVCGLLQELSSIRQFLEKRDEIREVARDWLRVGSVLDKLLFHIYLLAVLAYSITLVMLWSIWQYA
# dopamine D2 receptor = dopamine D2 receptor (Homo sapiens (Human), UniProt P14416); assay: Secondary radioligand binding assay, D2; parameters: key to Ki D2: “—” indicates that a binding interaction was not detected
# dopamine D2 receptor, sequence (P14416 whole entry, species assumed): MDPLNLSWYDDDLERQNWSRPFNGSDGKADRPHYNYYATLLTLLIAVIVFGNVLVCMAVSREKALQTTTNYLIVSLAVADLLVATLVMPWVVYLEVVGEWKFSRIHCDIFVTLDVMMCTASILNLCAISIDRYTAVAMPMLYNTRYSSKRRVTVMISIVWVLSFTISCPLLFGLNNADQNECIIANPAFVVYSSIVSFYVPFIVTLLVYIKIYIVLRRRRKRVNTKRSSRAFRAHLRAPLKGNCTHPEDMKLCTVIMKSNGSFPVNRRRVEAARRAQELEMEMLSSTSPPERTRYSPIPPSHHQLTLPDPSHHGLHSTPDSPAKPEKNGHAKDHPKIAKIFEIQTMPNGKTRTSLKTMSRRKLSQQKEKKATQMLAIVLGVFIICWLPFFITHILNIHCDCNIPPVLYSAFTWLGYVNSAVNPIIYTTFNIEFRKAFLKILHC
# Protocol: as §1, §2, §3, §4, §5, §6, §7
# [1] = molecular target: Alpha1B adrenergic receptor (Homo sapiens (Human), UniProt P35368); assay: Secondary radioligand binding assay, Alpha1B; parameters: key to Ki Alpha1B: “—” indicates that a binding interaction was not detected
# Alpha1B adrenergic receptor, sequence (P35368 whole entry): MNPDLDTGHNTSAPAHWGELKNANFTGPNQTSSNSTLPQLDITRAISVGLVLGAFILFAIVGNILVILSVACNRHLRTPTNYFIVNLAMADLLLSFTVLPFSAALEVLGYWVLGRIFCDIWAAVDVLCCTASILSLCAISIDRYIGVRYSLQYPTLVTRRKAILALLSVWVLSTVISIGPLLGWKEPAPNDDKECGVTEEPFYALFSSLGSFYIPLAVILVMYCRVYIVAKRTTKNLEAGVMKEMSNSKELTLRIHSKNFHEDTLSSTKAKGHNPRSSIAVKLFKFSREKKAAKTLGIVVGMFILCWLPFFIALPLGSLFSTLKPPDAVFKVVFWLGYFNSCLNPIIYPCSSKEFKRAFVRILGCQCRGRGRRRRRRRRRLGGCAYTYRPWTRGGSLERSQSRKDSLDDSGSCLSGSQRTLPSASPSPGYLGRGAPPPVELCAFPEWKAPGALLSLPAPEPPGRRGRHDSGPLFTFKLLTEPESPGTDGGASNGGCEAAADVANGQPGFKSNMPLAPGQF
# Source text: 1. Secondary Radioligand Binding Assays The detailed experimental protocols for the radioligand and functional receptor assays are available on the NIMH PDSP website at http://pdsp.med.unc.edu/UNC-CH %20Protocol %20Book.pdf. Raw data (dpm) representing total radioligand binding (i.e. specific+non-specific binding) are plotted as a function of the logarithm of the molar concentration of the competitor (i.e. test or reference compound). […] C. Adrenergic Receptors: α1A, α1B, α2A, α2B, α2C, β1, β2, β3 Assay Buffers: For α1 receptors, α1 Binding Buffer (20 mM Tris-HCl, 145 mM NaCl, pH 7.4); for α2 receptors, α2 Binding Buffer (50 mM Tris-HCl, 5 mM MgCl2, pH 7.7); for β receptors, β Binding Buffer (50 mM Tris-HCl, 3 mM MnCl2, pH 7.7) Membrane Fraction Source: Transiently or stably transfected cell lines (e.g. HEK293, COS, CHO, NIH3T3) Protocol adapted from Arango et al. […] (1990), Gen. Psychiatry, 47: 1038-1047. The method is carried out in the manner described for the serotonin receptor assay above, except where described below. Eleven dilutions (5× assay concentration) of the test and reference (see Table 20) compounds are prepared in the appropriate buffer by serial dilution, as previously described. Radioligand is diluted to five times the assay concentration (see Table 21) in the appropriate buffer. […] Four rapid 500-μl washes are performed with chilled distilled water (for α1 and β receptors) or 0.1% polyethyleneimine (for α2 receptors) to reduce non-specific binding. Filters are placed in 6 ml scintillation tubes and allowed to dry overnight and the samples are treated to obtain data as described above. [table]
# dopamine D5 receptor = dopamine D5 receptor (Homo sapiens (Human), UniProt P21918); assay: Secondary radioligand binding assay, D5; parameters: key to Ki D5: “—” indicates that a binding interaction was not detected
# dopamine D5 receptor, sequence (P21918 whole entry): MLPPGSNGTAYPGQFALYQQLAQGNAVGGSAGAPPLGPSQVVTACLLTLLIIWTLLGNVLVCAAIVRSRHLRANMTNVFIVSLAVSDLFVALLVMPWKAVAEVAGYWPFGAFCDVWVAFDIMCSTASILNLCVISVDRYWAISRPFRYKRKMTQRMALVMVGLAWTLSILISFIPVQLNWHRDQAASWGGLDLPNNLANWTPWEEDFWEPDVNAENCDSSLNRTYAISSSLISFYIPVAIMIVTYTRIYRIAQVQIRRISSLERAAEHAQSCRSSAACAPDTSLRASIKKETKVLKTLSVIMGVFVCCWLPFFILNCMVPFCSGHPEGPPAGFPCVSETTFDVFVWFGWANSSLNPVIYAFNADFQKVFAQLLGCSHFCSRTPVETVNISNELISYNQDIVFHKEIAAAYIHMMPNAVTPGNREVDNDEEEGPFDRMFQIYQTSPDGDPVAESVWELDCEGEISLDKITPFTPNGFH
# Protocol: as §1, §2, §3, §4, §5, §6, §7
# 5HT5 receptor = 5HT5 receptor (Homo sapiens (Human), UniProt P47898); assay: Secondary radioligand binding assay, 5HT5; parameters: key: “—” indicates that a binding interaction was not detected;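 also: competitive radioligand displacement on membranes from transfected cell lines, incubated at room temperature in the dark, filter-retained radioactivity counted by liquid scintillation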
# 5HT5 receptor, sequence (P47898 whole entry): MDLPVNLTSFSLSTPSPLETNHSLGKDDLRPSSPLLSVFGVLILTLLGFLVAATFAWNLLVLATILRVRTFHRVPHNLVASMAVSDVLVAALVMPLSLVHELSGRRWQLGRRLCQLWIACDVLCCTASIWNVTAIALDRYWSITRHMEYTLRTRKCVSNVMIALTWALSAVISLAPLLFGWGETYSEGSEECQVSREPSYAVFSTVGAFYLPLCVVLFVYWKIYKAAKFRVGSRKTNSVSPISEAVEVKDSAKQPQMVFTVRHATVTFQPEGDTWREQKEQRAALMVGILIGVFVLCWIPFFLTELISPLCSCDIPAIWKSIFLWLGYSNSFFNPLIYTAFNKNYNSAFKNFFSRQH
# 5HT6 receptor = 5HT6 receptor (Homo sapiens (Human), UniProt P50406); assay: Secondary radioligand binding assay, 5HT6; parameters: key: “—” indicates that a binding interaction was not detected;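 also: competition displacement of radioligand from membranes of transfected cell lines expressing the receptor, 1.5 h at room temperature, bound radioactivity counted by scintillation after filtration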
# 5HT6 receptor, sequence (P50406 whole entry): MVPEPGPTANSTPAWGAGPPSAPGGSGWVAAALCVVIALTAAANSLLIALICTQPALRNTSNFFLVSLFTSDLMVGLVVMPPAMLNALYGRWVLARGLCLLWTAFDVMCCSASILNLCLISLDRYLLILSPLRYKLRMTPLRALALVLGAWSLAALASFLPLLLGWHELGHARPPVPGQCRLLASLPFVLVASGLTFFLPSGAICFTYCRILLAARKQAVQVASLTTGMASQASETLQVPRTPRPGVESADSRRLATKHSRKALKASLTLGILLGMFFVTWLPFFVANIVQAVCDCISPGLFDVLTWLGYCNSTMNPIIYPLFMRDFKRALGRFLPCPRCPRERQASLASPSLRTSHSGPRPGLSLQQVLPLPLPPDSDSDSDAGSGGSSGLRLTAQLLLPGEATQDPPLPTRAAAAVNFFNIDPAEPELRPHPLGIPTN
# dopamine D1 receptor, sequence (P21728 whole entry): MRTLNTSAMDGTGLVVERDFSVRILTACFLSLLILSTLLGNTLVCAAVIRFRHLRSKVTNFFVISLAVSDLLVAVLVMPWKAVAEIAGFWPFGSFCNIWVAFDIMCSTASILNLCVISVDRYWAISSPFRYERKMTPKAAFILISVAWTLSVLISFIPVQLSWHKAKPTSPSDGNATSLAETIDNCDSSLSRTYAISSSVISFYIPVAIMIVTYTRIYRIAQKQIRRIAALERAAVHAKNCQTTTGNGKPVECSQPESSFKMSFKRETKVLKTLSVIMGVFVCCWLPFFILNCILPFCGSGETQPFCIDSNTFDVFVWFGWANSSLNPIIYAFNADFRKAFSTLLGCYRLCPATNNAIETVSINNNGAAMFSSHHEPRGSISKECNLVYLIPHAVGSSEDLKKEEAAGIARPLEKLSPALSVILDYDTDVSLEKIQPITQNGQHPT
SMILES,Ki D1 (dopamine D1 receptor),Ki D3 (dopamine D3 receptor),Ki 5HT1d (5HT1d receptor),Ki 5HT7 (5HT7 receptor),Ki 5HT3 (5HT3 receptor),Ki D2 (dopamine D2 receptor),Ki Alpha1B [1],Ki D5 (dopamine D5 receptor),Ki 5HT5 (5HT5 receptor),Ki 5HT6 (5HT6 receptor),Ki (dopamine D1 receptor) [µM]
"Cc1ccnc(C)c1OC[C@H]1CN(CCN2CCc3ccccc32)CCO1 [Compound 29r, (R)-2-(((2,4-Dimethylpyridin-3-yl)oxy)methyl)-4-(2-(indolin-1-yl)ethyl)morpholine]",—,—,—,—,—,—,—,—,—,—,
Cc1ncccc1OC[C@@H]1CN(CC(=O)N2c3ccccc3CC2C)CCO1.Cl (stereo partly drawn) [Compound 60],,—,—,—,—,—,—,—,—,—,> 10
Cc1ncccc1OC[C@@H]1CN(CC(=O)N2c3ccccc3C[C@H]2C)CCO1 [Compound 61],,—,—,—,—,—,—,—,—,—,> 10
Cc1ncccc1OC[C@H]1CN(CC(=O)N2c3ccccc3CC2C)CCO1 (stereo partly drawn) [Compound 62],—,—,—,—,—,—,—,—,—,—,
Cc1ncccc1OC[C@H]1CN(CC(=O)N2c3ccccc3C[C@H]2C)CCO1 [Compound 63],—,—,—,—,—,—,—,—,—,—,
CC1Cc2ccccc2N1C(=O)CN1CCO[C@H](COc2cccc(Cl)c2)C1 (stereo partly drawn) [Compound 64],—,—,—,—,—,—,—,—,—,—,
CC1Cc2ccccc2N1C(=O)CN1CCO[C@@H](COc2cccc(Cl)c2)C1 (stereo partly drawn) [Compound 65],—,—,—,—,—,—,—,—,—,—,
Cc1ccccc1OC[C@H]1CN(CC(=O)N2c3ccccc3CC2C)CCO1 (stereo partly drawn) [Compound 66],—,—,—,—,—,—,—,—,—,—,

# The next lines start with the values.
Ki D1 (dopamine D1 receptor),Ki D3 (dopamine D3 receptor),Ki 5HT1d (5HT1d receptor),Ki 5HT7 (5HT7 receptor),Ki 5HT3 (5HT3 receptor),Ki D2 (dopamine D2 receptor),Ki Alpha1B [1],Ki D5 (dopamine D5 receptor),Ki 5HT5 (5HT5 receptor),Ki 5HT6 (5HT6 receptor),Ki (dopamine D1 receptor) [µM],SMILES
—,—,—,—,—,—,—,—,—,—,,C[C@@H]1Cc2ccccc2N1C(=O)CN1CCO[C@@H](COc2ccncc2)C1 [Compound 67]
—,—,—,—,—,—,—,—,—,—,,CC1Cc2ccccc2N1C(=O)CN1CCO[C@@H](COc2ccncc2)C1 (stereo partly drawn) [Compound 68]
—,—,—,—,—,—,—,—,—,—,,CC1Cc2ccccc2N1C(=O)CN1CCO[C@@H](COc2ccccn2)C1 (stereo partly drawn) [Compound 69]
,—,—,—,—,—,—,—,—,—,> 10,Cc1ccnc(OC[C@H]2CN(CC(=O)N3c4ccccc4CC3C)CCO2)c1 (stereo partly drawn) [Compound 70]
